Test results: patent publication US5612188A, “Automated, multicompartmental cell culture system” (Cornell Research Foundation, Inc., priority 1994, dated 1997)
Like-named read-outs stand apart in the source and are kept apart here.

What was measured:
[1] = 45 mg/kg, 72 hours; cited from earlier work
[2] = system: sheep liver glutathione-S-arene oxide transferase; assay: Km's for conjugation of GSH and naphthalene oxide, partially purified transferase; type: in vitro ADME; settings: one-half of value for racemic naphthalene oxide, pH 7.4, read-out: Km for 1R, 2S-- or 1S, 2R-- NO (conjugation with GSH)
Text: (§1) The rate of reaction of naphthalene oxide with GSH is assumed to be of the form V=Vmax*{1GSH/(GSH+Kml)}*{NO/(NO+Km2)}. […] Work with partially purified sheep liver glutathione-S-arene oxide transferase has provided Km's for conjugation of GSH and racemic naphthalene oxide at pH 7.4 (Hayakawa, T., LeMahieu, R. A., and Udenfriend, S., "Studies on Glutathione-S-arene Oxide Transferase--a Sensitive Assay", Arch. Biochem. Biophys. 162: 223-230 (1974), which is hereby incorporated by reference). Individual glutathione-S-transferase isozymes are enantioselective with respect to naphthalene oxide (O'Brien, K. A. F., Suverkropp, C., Kanekal, S., Plopper, C. G., and Buckpitt, A. R., "Tolerance to Multiple Doses of the Pulmonary Toxicant, Naphthalene", Toxicol. Appl. Pharmacol. 99: 487-500 (1989), which is hereby incorporated by reference), but GSH conjugation proceeds equally fast with 1R, 2S- and 1S, 2R-naphthalene oxide (Buonarati, M., Jones, A. D., and Buckpitt, A., "In vivo Metabolism of Isomeric Naphthalene Oxide Glutathione Conjugates", Drug Metab. Dispos. 18: 183-189 (1990), which is hereby incorporated by reference). Therefore Vmax's for conjugation with each enantiomer are assumed equal, and the Km for reaction with each enantiomer is assumed to be one-half of the value reported for racemic naphthalene oxide.

H4IIE cells = assay: Viability of H4IIE hepatoma cells after 24 hr BrdU exposure and 30 sec UV light in the multicompartmental cell culture system (trypan blue); type: cell-based, rat
Experimental: A rat hepatoma cell line, H4IIE obtained from the American Type Culture Collection (Bethesda, Md.), was cultured in RPMI Medium 1640 with 5 percent fetal calf serum, L-glutamine and antibiotics (penicillin G, streptomycin and amphotericin B) (Gibco Island, N.Y.). Cells were seeded 24 hr before the experiment. Attachment of H4IIE cells occurs several hours following seeding. Density was approximately 20 percent of confluence at the start of the experiment.
The multicompartmental cell culture system ("MCCS") of the present invention was used to expose both normal and transformed cells to an antineoplastic compound simultaneously. The volume of distribution of the system was 500 mL. Each compartment (T-flask, Becton Dickinson, Lincoln Park, N.J.) contained 75 mL of cell culture medium (RPMI 1640 as previously described). The flow rate was set at 5 mL per min. and maintained by means of a peristaltic pump (Millipore, Bedford, Mass.). The entire system was placed inside a Forma Scientific water-jacketed incubator (Fisher Scientific, Philadelphia, Pa.) set at 37° C. with 5 percent CO2. […]
(§2) Following the 24 hr. exposure period, both human lymphocytes and rat hepatoma cells were exposed to a UV light source for 30 sec. Viable cells were determined and enumerated by trypan blue dye exclusion on a hemacytometer immediately following UV exposure.

human lymphocytes = assay: Viability of human lymphocytes after 24 hr BrdU exposure and 30 sec UV light in the multicompartmental cell culture system (trypan blue); type: cell-based; settings: 750 mg BrdU in 500 mL system
Experimental: Approximately 14 mL of freshly drawn human blood were collected into EDTA tubes (Becton Dickinson, Lincoln Park, N.J.). To this blood sample was added 4 mL of Hanks balanced salt solution. Two and one-half mL of the blood solution was layered onto 3 mL of ficoll (Pharmacia, Piscataway, N.J.) and centrifuged at 1500 rpm for 20 min at ambient temperature. The pellet was washed in an equal volume of Hanks balanced salt solution and recentrifuged. All lymphocytes collected from the 14 mL blood sample were seeded into 100 mL of RPMI 1640 (Gibco, Grand Island, N.Y.) and placed in a Forma Scientific water-jacketed incubator (Fisher Scientific, Philadelphia, Pa.) set at 37° C. with 5 percent CO2 overnight.
The multicompartmental cell culture system ("MCCS") of the present invention was used to expose both normal and transformed cells to an antineoplastic compound simultaneously. The volume of distribution of the system was 500 mL. Each compartment (T-flask, Becton Dickinson, Lincoln Park, N.J.) contained 75 mL of cell culture medium (RPMI 1640 as previously described). […]
as §2

[3] = system: sheep liver glutathione-S-arene oxide transferase; settings: read-out: Km for GSH, pH 7.4, cited from earlier work
protein = assay: Covalent binding of naphthalene oxide to protein in hepatocytes; type: in vitro ADME; settings: non-enzymatic; from hepatocyte incubations
Experimental: The first order rate constant for non-enzymatic rearrangement of naphthalene oxide to 1-naphthol has been reported (van Bladeran et al., 1985, supra). The rate of covalent binding was determined from data reported for incubations of hepatocytes with naphthalene oxide (Buonarati et al., 1989, supra).

lung microsomes [4] = assay: Conjugation of naphthalene oxide with GSH, rat lung; type: in vitro ADME; parameters: unit not given here; settings: assumed equal for each enantiomer
Text: (§3) Determination of Vmax's and Km's for naphthalene oxide production and Vmax's for GSH conjugates and dihydrodiol production in rat microsomes were done in the same way as for the mouse. Sources of data were Buckpitt, et al, 1987, supra, Hesse, S. and Mezger, M., "Involvement of Phenolic Metabolites in the Irreversible Protein-binding of Aromatic Hydrocarbons: Reactive Metabolites of [^14 C]-naphthalene and [^14 C] 1-naphthol Formed by Rat Liver Microsomas", Mol. Pharmacol. 16: 667-675 (1979) which is hereby incorporated by reference, O'Brien et al., 1985, supra, van Bladeren et al., 1985, supra, and Yost, G. S., Buckpitt, A. R., Roth, R. A., and McLemore, T. L., "Mechanisms of Lung Injury by Systematically Administered Chemicals", Toxicol. Appl. Pharmacol. 101: 179-195 (1989), which is hereby incorporated by reference.

[5] = system: lung microsomes and cytosolic protein; assay: Conjugation of naphthalene oxide with GSH, mouse lung; type: in vitro ADME; settings: assumed equal for each enantiomer
Text: as §1

[6] = system: liver microsomes and cytosolic protein; assay: Conjugation of naphthalene oxide with GSH, mouse liver; type: in vitro ADME; settings: assumed equal for each enantiomer
Text: as §1

[7] = non-enzymatic; cited from earlier work
liver microsomes [8] = assay: Conjugation of naphthalene oxide with GSH, rat liver; type: in vitro ADME; parameters: unit not given here; settings: assumed equal for each enantiomer
Text: as §3

liver GSH = settings: 48 hours after xylene; cited from earlier work
liver microsomes [9] = settings: 48 hours after xylene; cited from earlier work
lung microsomes [10] = settings: 48 hours after xylene; cited from earlier work

## Oc1cccc2ccccc12 [1 naphthol, 1-Naphthol]
[1]
  percent of dose recovered: Eighty-one

## C1=C[C@@H]2O[C@@H]2c2ccccc21 [1R, 2S NO, 1R, 2S-naphthalene oxide]
[2]; Mouse
  Km: 50 µM
[2]; Rat
  Km: 50 µM

## C1=C[C@H]2O[C@H]2c2ccccc21 [1S, 2R NO, 1S, 2R-naphthalene oxide]
[2]; Mouse
  Km: 50 µM
[2]; Rat
  Km: 50 µM

## O=c1[nH]c(=O)n([C@H]2C[C@H](O)[C@@H](CO)O2)cc1Br [BrdU, 5-bromo-2'-deoxyuridine]
H4IIE cells; 750 mg BrdU in 500 mL system, 30 sec UV
  viable H4IIE cells following UV exposure: fifty-three
H4IIE cells; MCCS, inferred from killing
  uptake of BrdU by hepatoma cells versus lymphocytes: greater uptake of the BrdU by the hepatoma cells than the lymphocytes
Human lymphocytes
  viable human lymphocytes following UV exposure: Eighty-nine

## N[C@@H](CCC(=O)N[C@@H](CS)C(=O)NCC(=O)O)C(=O)O [GSH, glutathione]
[3]; Mouse
  Km: 3300 µM
[3]; Rat
  Km: 3300 µM

## C1=CC2OC2c2ccccc21 (stereo not shown) [NO, naphthalene oxide]
protein
  Binding to protein: 0.2 pmole/mg/min/μM NO
Lung microsomes [4]
  Vmax, conjugation with GSH: 400
[5]
  Vmax, conjugation with GSH: 22.5 nmol/mg/min
[6]
  Vmax, conjugation with GSH: 150 nmol/mg/min
[7]
  First order rate constant for rearrangement to 1-napthol: 0.25 min⁻¹
Liver microsomes [8]
  Vmax, conjugation with GSH: 500

## xylene
Liver GSH
  GSH levels: return to normal
Liver microsomes [9]
  metabolism of naphthalene by liver microsomes: return to normal
Lung microsomes [10]
  metabolism of naphthalene by lung microsomes, percent of the normal rate: 56%
